Experimental data from the supplement of paper PMC13207355.

Tests used:
Details in all cases: exposure time: 72 h
FT3469 [1] = normal neural stem cell line; assay: phenotypic distance (Euclidean, principal components) from DMSO controls (arbitrary units); higher = stronger morphological change
E31 [2] = patient-derived glioblastoma stem cells of proneural subtype; assay: as above
E13 [3] = patient-derived glioblastoma stem cells of classical subtype; assay: as above
E34 [4] = patient-derived glioblastoma stem cells of proneural subtype; assay: as above
E21 [5] = patient-derived glioblastoma stem cells of mesenchymal subtype; assay: as above
E28 [6] = patient-derived glioblastoma stem cells of classical subtype; assay: as above
E57 [7] = patient-derived glioblastoma stem cells of mesenchymal subtype; assay: as above
FT3469 [8] = assay: surviving fraction (nuclei count normalised to DMSO); higher = more cells surviving (less toxic)
E31 [9] = assay: as above
E13 [10] = assay: as above
E34 [11] = assay: as above
E21 [12] = assay: as above
E28 [13] = assay: as above
E57 [14] = assay: as above
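Wherever phenotypic distance (Euclidean, principal components) from DMSO controls is given: cell Painting imaging in 384-well plates, CellProfiler features reduced to at least 20 principal components, Euclidean distance versus same-plate DMSO vehicle wells (0.1% v/v), median over six images per well.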
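Wherever surviving fraction (nuclei count normalised to DMSO) is given: nuclei counted by high-content imaging of Hoechst-stained cells in laminin-coated 384-well plates, relative to 0.1% DMSO vehicle wells, with staurosporine as cell-death control.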

Cn1nnc2c(C(N)=O)ncn2c1=O [Temozolomide]
Details | phenotypic distance | surviving fraction
E13 [3], 4.1 nM | 0.92 | –
E13 [3], 12.3 nM | 0.797 | –
E13 [3], 37 nM | 0.786 | –
E13 [3], 111.1 nM | 0.576 | –
E13 [3], 333.3 nM | 0.8 | –
E13 [3], 1000 nM | 0.525 | –
E13 [3], 3000 nM | 0.666 | –
E13 [10], 4.1 nM | – | 0.934
E13 [10], 12.3 nM | – | 0.862
E13 [10], 37 nM | – | 0.932
E13 [10], 111.1 nM | – | 0.981
E13 [10], 333.3 nM | – | 0.909
E13 [10], 1000 nM | – | 0.936
E13 [10], 3000 nM | – | 1.04
E21 [5], 4.1 nM | 1.04 | –
E21 [5], 12.3 nM | 0.604 | –
E21 [5], 37 nM | 0.561 | –
E21 [5], 111.1 nM | 0.642 | –
E21 [5], 333.3 nM | 1.07 | –
E21 [5], 1000 nM | 0.394 | –
E21 [5], 3000 nM | 0.971 | –
E21 [12], 4.1 nM | – | 0.919
E21 [12], 12.3 nM | – | 0.974
E21 [12], 37 nM | – | 0.955
E21 [12], 111.1 nM | – | 0.899
E21 [12], 333.3 nM | – | 0.883
E21 [12], 1000 nM | – | 0.988
E21 [12], 3000 nM | – | 0.862
E28 [6], 4.1 nM | 0.473 | –
E28 [6], 12.3 nM | 0.496 | –
E28 [6], 37 nM | 0.568 | –
E28 [6], 111.1 nM | 0.62 | –
E28 [6], 333.3 nM | 0.378 | –
E28 [6], 1000 nM | 0.593 | –
E28 [6], 3000 nM | 0.453 | –
E28 [13], 4.1 nM | – | 0.981
E28 [13], 12.3 nM | – | 0.95
E28 [13], 37 nM | – | 1.11
E28 [13], 111.1 nM | – | 1.02
E28 [13], 333.3 nM | – | 1.06
E28 [13], 1000 nM | – | 0.921
E28 [13], 3000 nM | – | 0.979
E31 [2], 4.1 nM | 1.06 | –
E31 [2], 12.3 nM | 2.72 | –
E31 [2], 37 nM | 0.892 | –
E31 [2], 111.1 nM | 0.246 | –
E31 [2], 333.3 nM | 0.629 | –
E31 [2], 1000 nM | 0.411 | –
E31 [2], 3000 nM | 0.89 | –
E31 [9], 4.1 nM | – | 0.882
E31 [9], 12.3 nM | – | 0.904
E31 [9], 37 nM | – | 0.833
E31 [9], 111.1 nM | – | 1.02
E31 [9], 333.3 nM | – | 1.02
E31 [9], 1000 nM | – | 0.972
E31 [9], 3000 nM | – | 0.803
E34 [4], 4.1 nM | 0.82 | –
E34 [4], 12.3 nM | 0.663 | –
E34 [4], 37 nM | 0.714 | –
E34 [4], 111.1 nM | 0.388 | –
E34 [4], 333.3 nM | 0.867 | –
E34 [4], 1000 nM | 0.392 | –
E34 [4], 3000 nM | 0.466 | –
E34 [11], 4.1 nM | – | 0.988
E34 [11], 12.3 nM | – | 0.89
E34 [11], 37 nM | – | 1.01
E34 [11], 111.1 nM | – | 0.947
E34 [11], 333.3 nM | – | 1.06
E34 [11], 1000 nM | – | 1.02
E34 [11], 3000 nM | – | 1.07
E57 [7], 4.1 nM | 0.77 | –
E57 [7], 12.3 nM | 0.543 | –
E57 [7], 37 nM | 0.294 | –
E57 [7], 111.1 nM | 0.599 | –
E57 [7], 333.3 nM | 0.816 | –
E57 [7], 1000 nM | 0.662 | –
E57 [7], 3000 nM | 1.29 | –
E57 [14], 4.1 nM | – | 0.946
E57 [14], 12.3 nM | – | 0.909
E57 [14], 37 nM | – | 0.95
E57 [14], 111.1 nM | – | 0.958
E57 [14], 333.3 nM | – | 0.951
E57 [14], 1000 nM | – | 0.953
E57 [14], 3000 nM | – | 0.931
FT3469 [1], 4.1 nM | 1.43 | –
FT3469 [1], 12.3 nM | 1.01 | –
FT3469 [1], 37 nM | 0.484 | –
FT3469 [1], 111.1 nM | 0.802 | –
FT3469 [1], 333.3 nM | 0.852 | –
FT3469 [1], 1000 nM | 0.793 | –
FT3469 [1], 3000 nM | 0.513 | –
FT3469 [8], 4.1 nM | – | 1.01
FT3469 [8], 12.3 nM | – | 0.927
FT3469 [8], 37 nM | – | 1
FT3469 [8], 111.1 nM | – | 0.936
FT3469 [8], 333.3 nM | – | 1.18
FT3469 [8], 1000 nM | – | 0.822
FT3469 [8], 3000 nM | – | 1.04
